In patent US7192931B2, “Treatment of demyelinating diseases” (Neuren Pharmaceuticals Ltd., priority 2000, dated 2007):

What was measured:
[1] = test system: C57Bl/6 mice with MOG35-55 peptide-induced EAE; experiment: Expanded disability status scale for EAE treated mice; assay type: in vivo, mouse; conditions: for Maximal disability score: Alertness / Maximal disability score: Bladder function / Maximal disability score: Eye movements / Maximal disability score: Motor (grip)* / Maximal disability score: Other signs (shine hairs and loose skin) / Maximal disability score: Sensory* Light touch / Maximal disability score: Sensory* Pain / Maximal disability score: Spontaneous mobility / Maximal disability score: Tone* / Maximal disability score: Tremor / Maximal disability score: Vision (including pupillary reflex) / Total expanded disability scale: mean values
Description: (§1) C57Bl/6 mice (8–10 week old) were injected subcutaneously in one flank with 300 μg of MOG35-55 peptide ([…]: SEQ ID NO:1) synthesized by Mimotapes Pty Ltd, Clayton, Australia and emulsified in CFA containing 500 μg of Mycobacterium tuberculosis H37Ra (DIFCO Laboratories, Detrit, USA). They also received 500 ng of pertussis toxin (List Biological Laboratories, CA, USA) in 200 μl PBS intravenously via the tail vein, followed 48 hours later by a second dose. A second injection of MOG peptide was given in the absence of pertussis toxin one week later in the opposite flank, as described previously (Kanwar et al., 2000b).
(§2) Two treatment protocols were employed, involving the treatment of early disease, versus advanced disease. For early disease, reagents were administered at day 35 (following MOG injection). Antibody was administered thrice on alternate days, whereas neuroprotectors were given daily for 6 days, where 50% of reagent was given ip and 50% iv. In the treatment of advanced disease, therapy as above was initiated at day 60, with either three or eight anti-MAdCAM-1 mAb injections, and neuroprotectors given daily for either 7 or 18 days.
The mice were monitored daily and scored according to the following scale: 0, no clinical signs of EAE; 1, limp tail; 2, partial hind limb paralysis; 3, complete hind limb paralysis; 4, complete hind limb and partial fore limb paralysis; 5, paralysis extending to diaphragm; 6, hind and fore limb paralysis; 7, death due to EAE. Paralysis extending to the diaphragm was denoted as difficulty in remaining upright. […] The daily mean clinical score for each group is the mean disease score of at least five mice. The body weight of animals was measured regularly throughout the experiments. The expanded disability status scale for EAE treated mice was scored using an earlier published scoring system (Villoslada et al. 2000).

[2] = test system: C57Bl/6 mice with MOG35-55 peptide-induced EAE; experiment: Neuropathology scoring of spinal cord sections (pathology status scale); assay type: in vivo, mouse; conditions: for Pathology status scale: Oligodendrocytes** / Pathology status scale: Remyelination**: reverse scores; for Pathology status scale: Axonal damage / Pathology status scale: Demyelination / Pathology status scale: Inflammation: scored 0 to 5
Description: as §1, §2
Mice were perfused through the left cardiac ventricle with ice-cold PBS or glutaraldehyde, and the CNS including brain and spinal cord were prepared for frozen or epoxy sections, respectively. Thin slices were taken at all levels of the CNS including spinal cord (cervical, midthoracic, T11, T12/13, upper lumbar, L6, L7 and sacral) and sacral roots. One-μm thick epoxy sections taken from different levels of the spinal cord were stained with toluidine blue, and examined by light microscopy by an investigator blinded to the sample identity. Multiple sections from the spinal cord were scored from 0 to 5 for inflammation, demyelination, remyelination, and axonal necrosis or damage, using a previously published scoring system (Moore et al., 2000).

## Gly-Pro-Glu [GPE]
[1]; at day 70 as printed, 35 for rat IgG treated control mice
  total scores (disability scale): 10
[1]; day 55 after immunization
  Maximal disability score: Alertness: 2
  Maximal disability score: Bladder function: 0
  Maximal disability score: Eye movements: 1
  Maximal disability score: Motor (grip)*: 12
  Maximal disability score: Other signs (shine hairs and loose skin): 3
  Maximal disability score: Sensory* Light touch: 8
  Maximal disability score: Sensory* Pain: 8
  Maximal disability score: Spontaneous mobility: 3
  Maximal disability score: Tone*: 12
  Maximal disability score: Tremor: 2
  Maximal disability score: Vision (including pupillary reflex): 1
  Total expanded disability scale: 52
[1]; day 60 after immunization
  Maximal disability score: Alertness: 2
  Maximal disability score: Bladder function: 1
  Maximal disability score: Eye movements: 1
  Maximal disability score: Motor (grip)*: 12
  Maximal disability score: Other signs (shine hairs and loose skin): 2
  Maximal disability score: Sensory* Light touch: 8
  Maximal disability score: Sensory* Pain: 8
  Maximal disability score: Spontaneous mobility: 3
  Maximal disability score: Tone*: 12
  Maximal disability score: Tremor: 2
  Maximal disability score: Vision (including pupillary reflex): 1
  Total expanded disability scale: 52
[1]; day 65 after immunization
  Maximal disability score: Alertness: 1
  Maximal disability score: Bladder function: 0
  Maximal disability score: Eye movements: 0
  Maximal disability score: Motor (grip)*: 4
  Maximal disability score: Other signs (shine hairs and loose skin): 0
  Maximal disability score: Sensory* Light touch: 0
  Maximal disability score: Sensory* Pain: 0
  Maximal disability score: Spontaneous mobility: 2
  Maximal disability score: Tone*: 8
  Maximal disability score: Tremor: 0
  Maximal disability score: Vision (including pupillary reflex): 0
  Total expanded disability scale: 15
[1]; day 70 after immunization
  Maximal disability score: Alertness: 1
  Maximal disability score: Bladder function: 0
  Maximal disability score: Eye movements: 1
  Maximal disability score: Motor (grip)*: 4
  Maximal disability score: Other signs (shine hairs and loose skin): 0
  Maximal disability score: Sensory* Light touch: 0
  Maximal disability score: Sensory* Pain: 0
  Maximal disability score: Spontaneous mobility: 3
  Maximal disability score: Tone*: 4
  Maximal disability score: Tremor: 0
  Maximal disability score: Vision (including pupillary reflex): 0
  Total expanded disability scale: 13
[1]; day 75 after immunization
  Maximal disability score: Alertness: 1
  Maximal disability score: Bladder function: 1
  Maximal disability score: Eye movements: 0
  Maximal disability score: Motor (grip)*: 0
  Maximal disability score: Other signs (shine hairs and loose skin): 0
  Maximal disability score: Sensory* Light touch: 0
  Maximal disability score: Sensory* Pain: 0
  Maximal disability score: Spontaneous mobility: 3
  Maximal disability score: Tone*: 4
  Maximal disability score: Tremor: 0
  Maximal disability score: Vision (including pupillary reflex): 1
  Total expanded disability scale: 10
[1]; day 119 after immunization
  Maximal disability score: Alertness: 1
  Maximal disability score: Bladder function: 0
  Maximal disability score: Eye movements: 1
  Maximal disability score: Motor (grip)*: 0
  Maximal disability score: Other signs (shine hairs and loose skin): 0
  Maximal disability score: Sensory* Light touch: 4
  Maximal disability score: Sensory* Pain: 4
  Maximal disability score: Spontaneous mobility: 2
  Maximal disability score: Tone*: 4
  Maximal disability score: Tremor: 1
  Maximal disability score: Vision (including pupillary reflex): 0
  Total expanded disability scale: 17
[2]; day 45
  Pathology status scale: Apoptosis: 3
  Pathology status scale: Oligodendrocytes**: 3
  Pathology status scale: Remyelination**: 2
  Pathology status scale: Axonal damage: 3
  Pathology status scale: Demyelination: 3
  Pathology status scale: Inflammation: 2
[2]; day 60
  Pathology status scale: Apoptosis: 3
  Pathology status scale: Oligodendrocytes**: 3
  Pathology status scale: Remyelination**: 3
  Pathology status scale: Axonal damage: 3
  Pathology status scale: Demyelination: 3
  Pathology status scale: Inflammation: 3
[2]; day 65
  Pathology status scale: Apoptosis: 2
  Pathology status scale: Oligodendrocytes**: 2
  Pathology status scale: Remyelination**: 2
  Pathology status scale: Axonal damage: 2
  Pathology status scale: Demyelination: 2
  Pathology status scale: Inflammation: 2
[2]; day 70
  Pathology status scale: Apoptosis: 3
  Pathology status scale: Oligodendrocytes**: 2
  Pathology status scale: Remyelination**: 2
  Pathology status scale: Axonal damage: 3
  Pathology status scale: Demyelination: 3
  Pathology status scale: Inflammation: 2
[2]; day 119
  Pathology status scale: Apoptosis: 2
  Pathology status scale: Oligodendrocytes**: 2
  Pathology status scale: Remyelination**: 1
  Pathology status scale: Axonal damage: 2
  Pathology status scale: Demyelination: 2
  Pathology status scale: Inflammation: 1
[2]; sum over the six pathology parameters after treatment
  Total scores After treatment (pathology status scale): 55
[2]; text statement of Table 2 totals
  cumulative scores for inflammation, demyelination, remyelination, apoptosis, oligodendrocyte loss, and axonal damage following treatment: 55
